Experimental data reported in patent US6610703B1, “Method for treatment of glycolipid storage diseases” (G.D. Searle & Co., priority 1998, dated 2003).

Columns and labels:
[1] = test system: Serum Protein; assay: Imino sugar (N-alkyl DNJ) binding to serum protein; type: in vitro ADME; conditions: protein bound versus non-bound radioactivity (FIG. 14)
Source text: The percentage compound radioactivity is plotted against N-alkyl chain length (C4 to C18) with the protein bound percentage shown by open circles and the non-bound percentage shown by filled circles. […] Short chain compounds (C4-C6) bind poorly but those larger than C10 are almost completely bound to protein.

[2] = Organ distribution of radiolabelled compound in mouse after oral gavage; type: in vivo; conditions: for % recovered radioactivity, Brain / % recovered radioactivity, Liver: normal mouse, gavage; for distribution in mouse liver (deposition and clearance): oral gavage, 30, 60 and 90 minutes (FIG. 10)
Experimental: Mouse body fluids and organs were collected for different times after gavage with radiolabelled compound. Radioactivity in each sample was determined and expressed as a percentage of radio-activity recovered. Solid bars, NN-DNJ, hatched bars, NB-DNJ.
The radioactivity recovered (%) is plotted against N-alkyl chain length (C4 to C18) for 30 minutes (clear bars), 60 minutes (shaded bars) and 90 minutes (filled, black bars). […] Short chain compounds (C4-C6) are rapidly cleared in a time-dependent manner. […] The C12 to C18 analogs show the reverse trend, i.e., reduced appearance in the liver but this increases with time.
The radioactivity recovered (%) is plotted against N-alkyl chain length (C4 to C18) for 30 minutes (clear bars), 60 minutes (shaded bars) and 90 minutes (filled, black bars).
FIG. 12 is a series of four bar charts, A, B, C and D, in which radioactivity (cpm) found in the liver is plotted against time post gavage in hours (h) with four different N-alkyl analogs of deoxynojirimycin (DNJ). The four analogs shown are:; FIG. 12A, N-butyl(C4); FIG. 12B, N-nonyl (C9); FIG. 12C, N-dodecyl(C12); FIG. 12D, N-cis-13-octadecenyl (C18).
FIG. 13 is a series of four bar charts, A, B, C and D, in which radioactivity (cpm) found in the brain is plotted against time post gavage in hours (h) with the same analog compounds as in FIG. 12. The four analogs shown are: FIG. 13A, N-butyl (C4); FIG. 13B, N-nonyl (C9); FIG. 13C, N-dodecyl (C12); FIG. 13D, N-cis-13-octadecenyl (C18).
Further evidence that longer alkyl chains are taken up much better has been obtained by in vivo studies with mouse.

[3] = test system: glycolipid biosynthesis; conditions: according to U.S. Pat. No. 5,472,969, cited from earlier work; for dose required / activity against glycolipid biosynthesis: unit not given
[4] = test system: human myeloid (HL-60) cells; assay: Inhibition of glycolipid biosynthesis in HL-60 cells (radiolabelled palmitic acid, TLC, scanning densitometry); type: cell-based; conditions: for times more sensitive HL-60 cells than CHO cells: HL-60 versus CHO cells
Experimental: Cells were cultured for four days in the presence of radiolabelled palmitic acid and the following concentrations of compound:
After extraction the radioactively labelled glycolipids were separated by TLC and visualized by radioautography.
Chinese Hamster Ovary (CHO) cells and human myeloid (HL-60) cells grown in the presence of varying concentrations of inhibitor in addition to a precursor (radiolabelled palmitic acid) of glycolipid biosynthesis were treated with solvents to extract the glycolipids by the procedure described by Platt et al., J. Biol. Chem. 269, 8362-8365 (1994).
The radiolabelled lipids were separated by TLC (FIG. 1) and bands corresponding to glucosylceramide and lactosyl-ceramide were quantitated by scanning densitometry to estimate the reduction in glycolipid biosynthesis.

[5] = biological target: T1, HL-60 cell ceramide glucosyltransferase (Homo sapiens, UniProt Q16739); assay: In vitro inhibition of HL-60 cell ceramide glucosyltransferase activity; type: biochemical; conditions: C4 to C18 series (FIG. 8)
T1 construct: endogenous in cells; host or cells: HL-60 (human myeloid) cells
T1 sequence (Q16739 1-394): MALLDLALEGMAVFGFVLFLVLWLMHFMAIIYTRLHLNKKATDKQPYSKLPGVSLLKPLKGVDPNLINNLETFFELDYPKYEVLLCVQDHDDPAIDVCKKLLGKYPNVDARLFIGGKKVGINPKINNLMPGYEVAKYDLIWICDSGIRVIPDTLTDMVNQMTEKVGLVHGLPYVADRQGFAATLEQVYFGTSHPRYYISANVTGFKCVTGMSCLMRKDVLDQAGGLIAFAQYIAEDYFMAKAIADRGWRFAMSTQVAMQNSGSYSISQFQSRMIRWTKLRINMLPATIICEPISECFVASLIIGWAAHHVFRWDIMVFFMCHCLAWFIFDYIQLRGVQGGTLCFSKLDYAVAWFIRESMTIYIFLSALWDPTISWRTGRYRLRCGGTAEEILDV

[6] = test system: CHO, MDBK and HepG2 cells; assay: Cell-associated radioactivity (uptake) of radiolabelled compound in cultured cells; type: in vitro ADME; conditions: MDBK and HepG2, incubated up to 24 hours
[7] = test system: Hepatitis B virus (HBV); conditions: Block et al., Nature Medicine 1998; cited from earlier work

CCCCCCCCN1CC(O)C(O)C(O)C1CO (stereo not drawn) [C8]
binding to serum protein [1]: favor equally, protein and solution phase

CCCC/C=C\CCCCCCCCCCCCN1C[C@H](O)[C@@H](O)[C@H](O)[C@H]1CO [C18]
deposition in the liver ([2]; mouse, 24 h post gavage (FIG. 12)): significant deposition

CCCCN1C[C@H](O)[C@@H](O)[C@H](O)[C@H]1CO [N-butyl-DNJ, N-butyldeoxynojirimycin, reference compound]
dose required / activity against glycolipid biosynthesis [3]: 0.01-0.1 | times more sensitive HL-60 cells than CHO cells [4]: more than 10 times | time after which the majority of radioactivity is found in the liver ([2]; mouse, post gavage (FIG. 12)): 1.5 h | % recovered radioactivity, Brain ([2]; 30 min): 0.2% | % recovered radioactivity, Liver ([2]; 30 min): 8.5% | % recovered radioactivity, Brain ([2]; 60 min): 0.1% | % recovered radioactivity, Liver ([2]; 60 min): 2.8% | % recovered radioactivity, Brain ([2]; 90 min): 0.03% | % recovered radioactivity, Liver ([2]; 90 min): 0.9%

CCCCCCCCCCN1C[C@H](O)[C@@H](O)[C@H](O)[C@H]1CO [N-decyl-DNJ]
inhibition at times lower concentrations than N-butyl-DNJ ([4]; HL-60 cell-based assay): 50 times | distribution in mouse liver (deposition and clearance) [2]: increased deposition and slower clearance | inhibition of ceramide glucosyltransferase versus N-alkyl chain length [5]: optimal

CCCCCCN1C[C@H](O)[C@@H](O)[C@H](O)[C@H]1CO [N-hexyl derivative of DNJ]
dose required for activity against glycolipid biosynthesis [3]: 0.2 mg/mL

CN1C[C@H](O)[C@@H](O)[C@H](O)[C@H]1CO [N-methyl analog]
dose required / activity against glycolipid biosynthesis [3]: inactive

CCCCCCCCCN1C[C@H](O)[C@@H](O)[C@H](O)[C@H]1CO [N-nonyl-DNJ, N-nonyl-1.5-dideoxy-1,5-imino-D-glucitol]
times more sensitive HL-60 cells than CHO cells [4]: 100 times | binding to serum protein [1]: favor equally, protein and solution phase | % recovered radioactivity, Brain ([2]; 30 min): 0.4% | % recovered radioactivity, Liver ([2]; 30 min): 27.1% | % recovered radioactivity, Brain ([2]; 60 min): 0.3% | % recovered radioactivity, Liver ([2]; 60 min): 12.6% | % recovered radioactivity, Brain ([2]; 90 min): 0.4% | % recovered radioactivity, Liver ([2]; 90 min): 13.5% | distribution in mouse liver (deposition and clearance) [2]: increased deposition and slower clearance | increase of cell-associated radioactivity versus N-butyl-DNJ [6]: 3.5-5 fold | inhibition of Hepatitis B virus [7]: effective as an inhibitor
